Laboratory results published in US8372967B2, “Compounds and methods for modulating expression of GCCR” (Isis Pharmaceuticals, Inc., priority 2006, dated 2013).
Strand notation (5' to 3'): a small letter for the sugar, then the base; units joined by * are phosphorothioate-linked, units joined directly phosphodiester-linked; [ ] holds rarer units or linkages, { } end groups; capitals alone tell only the bases. [PAM-N] = nucleoside carrying a 2'-(butylacetamido)-palmitamide group (palmitic acid C16 conjugate) (N: the base); e = 2'-O-(2-methoxyethyl) (MOE); l = locked nucleic acid (LNA); [5mC] = 5-methylcytosine; d = 2'-deoxy (DNA)

Experiments:
[1] = Plasma glucose in ZDF rat (Table 71); assay type: in vivo
Procedure: (§1) ISIS 388625, 388626 and control oligo ISIS 388628 were analyzed for their effect on ZDF rat plasma glucose levels and HbA1c. The leptin receptor deficient Zucker diabetic fatty (ZDF) rat is a useful model for the investigation of type 2 diabetes. Diabetes develops spontaneously in these male rats at ages 8-10 weeks, and is associated with hyperphagia, polyuria, polydipsia, and impaired weight gain, symptoms which parallel the clinical symptoms of diabetes (Phillips M S, et al., 1996, Nat Genet. 13, 18-19). Six week old ZDF rats were injected intraperitoneally with short antisense compound at a dose of 400 nM/kg once a week for twelve weeks. Data are illustrated in Tables 71 and 72.

[2] = HbA1c status in ZDF rat (Table 72); assay type: in vivo; settings: for Percentage HbA1c: ZDF rat, 400 nM/kg i.p. once a week
Procedure: as §1

[3] = test system: mouse SGLT2 mRNA; experiment: Mouse SGLT2 mRNA in kidney, additional 1-10-1 and 2-8-2 MOE gapmers (Table 68); assay type: in vivo; settings: Balb/c mouse kidney
Procedure: 1-10-1 and 2-8-2 MOE gapmer short antisense compounds were designed to target different regions of the mouse SGLT2 RNA but have complementarity across species. […] All cytidine residues are 5-methylcytidines.
The short antisense compounds were analyzed for their effect on mouse SGLT2 mRNA levels in vivo. Data was taken from three experiments in which male 6-week old Balb/c mice were dosed twice per week for three weeks with 0.5, 0.1, or 0.02 umol/kg of either a 1-10-1 or 2-8-2 MOE gapmer given by intraperitoneal injection. Mice were sacrificed 48 hours following last administration and evaluated for SGLT2 levels in kidney. Target levels were determined by RT, real-time PCR as described by other examples herein. PCR results were normalized to an internal ISIS control.

[4] = test system: ApoB mRNA; experiment: ApoB mRNA in liver and estimated ED50, compounds comprising palmitic acid conjugates (Table 95); assay type: in vivo, mouse; settings: ApoB mRNA in liver, Balb/c mice, relative to saline
Procedure: 0.4, and 0.16 umol/kg. Each dose group consisted of four animals. A 5-10-5 MOE gapmer was used for a control treatment. Mice were sacrificed approximately 48 hours following the final dose. Liver tissue was collected for RNA isolation, and blood was collected for serum chemistry analyses. ApoB mRNA levels were measured by real-time PCR as described herein. ApoB mRNA levels were normalized to RNA levels as determined by RIBOGREEN, and are presented in Table 95 as percent inhibition relative to ApoB mRNA levels in saline-treated control animals.
At the 2.5 umol/kg dose, ApoB inhibition by the short antisense compounds was greater than observed with a 5-10-5 MOE gapmer at an equivalent dose. […] Triglycerides were reduced at the 2.5 and […] doses of ISIS 387462 and ISIS 391872.

[5] = test system: mouse SGLT2 mRNA; experiment: Mouse SGLT2 mRNA in kidney, 1-10-1 MOE gapmers, Balb/c mice (Table 65); assay type: in vivo
Procedure: The short antisense compounds were analyzed for their effect on mouse SGLT2 mRNA levels. Data was taken from three experiments in which Male 6-week old Balb/c mice were dosed twice per week for two weeks with 450, 150, or 50 nmol/kg of one of the above 1-10-1 MOE gapmers given by intraperitoneal injection. Mice were sacrificed 48 hours following last administration and evaluated for SGLT2 mRNA levels in kidney. Target levels were determined by RT, real-time PCR as described by other examples herein. PCR results were normalized to an internal ISIS control.

[6] = test system: mouse SGLT2 mRNA; experiment: Mouse SGLT2 mRNA in kidney, MOE versus Methyleneoxy BNA gapmers (Table 69); assay type: in vivo; settings: Balb/c mouse kidney
Procedure: The effect of ISIS 3796921-10-1 MOE gapmer and ISIS 3886252-8-2 MOE gapmer are compared with the effect of ISIS 3921701-10-1 Methyleneoxy BNA Gapmer and ISIS 3921732-8-2 Methyleneoxy BNA Gapmer (see Table 69) on mouse SGLT2 mRNA levels in vivo. Data are taken from three experiments in which male 6-week old Balb/c mice were dosed twice per week for three weeks with 5, 25 and 125 nmol/kg of either the ISIS 3796921-10-1 MOE gapmer or the ISIS 3886252-8-2 MOE gapmer given by intraperitoneal injection. Mice were sacrificed 48 hours following last administration and evaluated for SGLT2 mRNA levels in kidney. Target levels were determined by RT, real-time PCR as described by other examples herein. PCR results were normalized to an internal ISIS control. The data are expressed as percent change (“+” indicates an increase, “−” indicates a decrease) relative to saline treated animals and are illustrated in Table 69.

[7] = test system: rat SGLT2 mRNA; experiment: Rat SGLT2 mRNA in kidney, 1-10-1 and 1-10-2 MOE gapmers, Sprague-Dawley rats (Table 63); assay type: in vivo
Description: 1-10-1 and 1-10-2 MOE gapmer antisense compounds, provided in Table 62, were designed to target different regions of the mouse or rat SGLT2 RNA. All short antisense compounds in Table 62 are chimeric oligonucleotides (“gapmers”) either 12 or 13 nucleotides in length, composed of a central “gap” segment consisting of ten 2′-deoxynucleotides, which are flanked on the 5′ side by a one-nucleoside “wing” and on the 3′ side by a two or one-nucleotide “wing”. […] All cytidine residues are 5-methylcytidines.
The short antisense compounds were analyzed for their effect on rat SGLT2 mRNA levels. Data are ranges taken from three experiments in which Male Sprague-Dawley rats (170-200 g) were dosed twice per week for three weeks with 450, 150 or 50 nmol/kg of either a 1-10-1 or 1-10-2 MOE gapmer given by intraperitoneal injection. Rats were sacrificed 48 hours following last administration and evaluated for SGLT2 mRNA levels in kidney. Target levels were determined by RT, real-time PCR as described by other examples herein. PCR results were normalized to an internal ISIS control.

[8] = test system: rat SGLT2 mRNA; experiment: Rat SGLT2 mRNA in kidney, 1-10-1 and 2-8-2 MOE gapmer (Table 70); assay type: in vivo; settings: Sprague-Dawley rat kidney
Procedure: The effect of ISIS 3796921-10-1 MOE gapmer and ISIS 388625 MOE 2-8-2 gapmer (see Table 70) on rat SGLT2 mRNA levels in vivo. […] Rats were sacrificed 48 hours following last administration and evaluated for SGLT2 levels in kidney. Target levels were determined by RT, real-time PCR as described by other examples herein. PCR results were normalized to an internal ISIS control.

[9] = test system: rat SGLT2 mRNA; experiment: Rat SGLT2 mRNA in kidney, 1-10-1 gapmers, 250 nmol/kg (Table 66); assay type: in vivo; settings: 250 nmol/kg i.p. twice per week for three weeks, Sprague-Dawley rat kidney
Procedure: The effect of the above 1-10-1 gapmers (see Table 64 above) on rat SGLT2 mRNA levels. Data are taken from four experiments in which male Sprague-Dawley rats (170-200 g) were dosed twice per week for three weeks with 250 nmol/kg given by intraperitoneal injection. Rats were sacrificed 48 hours following last administration and evaluated for SGLT2 mRNA levels in kidney. Target levels were determined by RT, real-time PCR as described by other examples herein. PCR results were normalized to an internal ISIS control.

[10] = test system: GCGR mRNA; experiment: Antisense inhibition of GCGR in HepG2 cells (Table 79); assay type: cell-based, human; settings: for percent reduction in GCGR mRNA: HepG2 cells, relative to untreated control cells
Procedure: Short antisense compounds targeted to a GCGR nucleic acid were tested for their effects on GCGR mRNA in vitro.
Cultured HepG2 cells at a density of 10000 cells per well in a 96-well plate were treated as described herein with 25, 50, 100 or 200 nM of antisense oligonucleotide. After the treatment period, RNA was isolated from the cells and GCGR mRNA levels were measured by quantitative real-time PCR, as described herein. GCGR mRNA levels were adjusted according to total RNA content as measured by RIBOGREEN®. Results are presented as percent reduction in GCGR mRNA, relative to untreated control cells.

[11] = test system: monkey GCGR mRNA; experiment: Antisense inhibition of GCGR in primary monkey hepatocytes (Table 80); assay type: cell-based; settings: relative to untreated control cells
Procedure: Additional short antisense compounds targeted to a GCGR nucleic acid were tested for their effects on monkey GCGR mRNA in vitro. Cultured primary monkey hepatocytes were treated as described herein with 25, 50, 100 or 200 nM of short antisense compound. After the treatment period, RNA was isolated from the cells and GCGR mRNA levels were measured by quantitative real-time PCR, as described herein. GCGR mRNA levels were adjusted according to total RNA content as measured by RIBOGREEN®. Results are presented in Table 80 as percent reduction in GCGR mRNA, relative to untreated control cells.

[12] = ZDF rats, 400 nM/kg i.p. once a week for twelve weeks, compared to PBS and control
[13] = 0.02 umol/kg i.p. twice per week for three weeks
[14] = 0.1 umol/kg i.p. twice per week for three weeks
[15] = 0.5 umol/kg i.p. twice per week for three weeks
[16] = single i.p. injection 0.16 umol/kg
[17] = single i.p. injection 0.4 umol/kg
[18] = single i.p. injection 1.0 umol/kg

## 388626 (eG*eG*d[5mC]*dA*dT*dG*dA*dG*d[5mC]*dT*eT*e[5mC]) [compound 388626]
[1]; Day 10, ZDF rat, 400 nM/kg i.p. once a week
  Plasma glucose levels: 434.7 mg/dL
[1]; Day 40, ZDF rat, 400 nM/kg i.p. once a week
  Plasma glucose levels: 300.5 mg/dL
[1]; Day 55, ZDF rat, 400 nM/kg i.p. once a week
  Plasma glucose levels: 219.8 mg/dL
[1]; Day 66, ZDF rat, 400 nM/kg i.p. once a week
  Plasma glucose levels: 379.8 mg/dL
[2]; Day 40
  Percentage HbA1c: 6.6%
[2]; Day 55
  Percentage HbA1c: 5.9%
[2]; Day 68
  Percentage HbA1c: 4.0%

## ISIS 388626: GGCATGAGCTTC 2-8-2 MOE, SGLT2 (eG*eG*d[5mC]*dA*dT*dG*dA*dG*d[5mC]*dT*eT*e[5mC])
[1]; [12]
  Plasma glucose levels: significantly reduced
[3]; [13]
  % change in SGLT2 expression relative to saline: −45%
[3]; [14]
  % change in SGLT2 expression relative to saline: −60%
[3]; [15]
  % change in SGLT2 expression relative to saline: −80%
[2]; [12]
  HbA1C: significantly reduced

## 391872 ([PAM-G]*lG*dT*dA*dC*dA*dT*dG*dG*dA*dA*dG*lT*l[5mC]) [compound 391872]
[4]; [16]
  % Inhib: 18%
[4]; [17]
  % Inhib: 50%
[4]; [18]
  % Inhib: 92%

## ISIS 379692: 1-10-1 MOE gapmer, SGLT2 (eT*dG*dT*dT*d[5mC]*d[5mC]*dA*dG*d[5mC]*d[5mC]*d[5mC]*eA)
[3]; [13]
  % change in SGLT2 expression relative to saline: −55%
[3]; [14]
  % change in SGLT2 expression relative to saline: −75%
[3]; [15]
  % change in SGLT2 expression relative to saline: −85%
[5]; 50 nmol/kg i.p. twice per week for two weeks
  % change in SGLT2 expression relative to saline: −52.5%
[5]; 150 nmol/kg i.p. twice per week for two weeks
  % change in SGLT2 expression relative to saline: −70%
[5]; 450 nmol/kg i.p. twice per week for two weeks
  % change in SGLT2 expression relative to saline: −80%
[6]; 5 nmol/kg i.p. twice per week for three weeks
  SGLT2 mRNA, percent change relative to saline treated animals: −7%
[6]; 25 nmol/kg i.p. twice per week for three weeks
  SGLT2 mRNA, percent change relative to saline treated animals: −46%
[6]; 125 nmol/kg i.p. twice per week for three weeks
  SGLT2 mRNA, percent change relative to saline treated animals: −58%
[7]; 50 nmol/kg i.p. twice per week for three weeks
  % change in SGLT2 expression relative to saline: −80%
[7]; 150 nmol/kg i.p. twice per week for three weeks
  % change in SGLT2 expression relative to saline: −85%
[7]; 450 nmol/kg i.p. twice per week for three weeks
  % change in SGLT2 expression relative to saline: −90%
[8]; dose 3.125 umol/kg [sic] i.p. twice per week for three weeks
  % change in SGLT2 expression relative to saline: +30%
[8]; dose 12.5 umol/kg [sic] i.p. twice per week for three weeks
  % change in SGLT2 expression relative to saline: −15%
[8]; dose 50 umol/kg [sic] i.p. twice per week for three weeks
  % change in SGLT2 expression relative to saline: −65%
[8]; dose 200 umol/kg [sic] i.p. twice per week for three weeks
  % change in SGLT2 expression relative to saline: −80%
[9]
  % change in SGLT2 expression relative to saline: −85%

## ISIS 327161: 3-10-3 MOE gapmer targeted to GCGR (eA*eG*e[5mC]*dT*dG*d[5mC]*dT*dG*dT*dA*d[5mC]*eA*eT*e[5mC])
[10]; HepG2, 25, 50, 100 or 200 nM
  GCGR mRNA: reduced GCGR mRNA in a dose-dependent manner

## 391871 ([PAM-G]*eG*dT*dA*dC*dA*dT*dG*dG*dA*dA*dG*eT*e[5mC]) [compound 391871]
[4]; [16]
  % Inhib: 0%
[4]; [17]
  % Inhib: 5%
[4]; [18]
  % Inhib: 18%

## 327161 (antisense eA*eG*e[5mC]*dT*dG*d[5mC]*dT*dG*dT*dA*d[5mC]*eA*eT*e[5mC]) [compound 327161]
[11]; 25 nM
  percent reduction in GCGR mRNA: −19%
[11]; 50 nM
  percent reduction in GCGR mRNA: −33%
[11]; 100 nM
  percent reduction in GCGR mRNA: −55%
[11]; 200 nM
  percent reduction in GCGR mRNA: −54%
[10]; 25 nM
  percent reduction in GCGR mRNA: −36%
[10]; 50 nM
  percent reduction in GCGR mRNA: −30%
[10]; 100 nM
  percent reduction in GCGR mRNA: −33%
[10]; 200 nM
  percent reduction in GCGR mRNA: −64%
